Laboratory results as given in the kinase profiling compilation of Christmann-Franck et al. (2016).

Assays:
Experiment in all cases: radiometric filter-binding kinase assay, Kinase HotSpot
Conditions in all cases: compound 0.5 µM; ATP 10 µM
WNK3 (human) = WNK3 (human) (UniProt Q9BYP7)
NTRK1 (human) = NTRK1 (human) (UniProt P04629)
GSK3B (human) = GSK3B (human) (UniProt P49841)
KIT (human) = KIT (human) (UniProt P10721)
EPHA3 (human) = EPHA3 (human) (UniProt P29320)
CHUK (human) = CHUK (human) (UniProt O15111)
MST1R (human) = MST1R (human) (UniProt Q04912)
EPHB4 (human) = EPHB4 (human) (UniProt P54760)
DYRK3 (human) = DYRK3 (human) (UniProt O43781)
[1] = target: TYK2 JH1 catalytic (human) (UniProt P29597)
MAPK9 (human) = MAPK9 (human) (UniProt P45984)
CDK1 CCNA2 (human) = CDK1 CCNA2 (human) (UniProt P06493+P20248)
CSNK2A2 (human) = CSNK2A2 (human) (UniProt P19784)
MERTK (human) = MERTK (human) (UniProt Q12866)
RAF1 (human) = RAF1 (human) (UniProt P04049)
CSNK1G3 (human) = CSNK1G3 (human) (UniProt Q9Y6M4)
Chain of CSNK1G3 (human) (Q9Y6M4 whole entry, looked up): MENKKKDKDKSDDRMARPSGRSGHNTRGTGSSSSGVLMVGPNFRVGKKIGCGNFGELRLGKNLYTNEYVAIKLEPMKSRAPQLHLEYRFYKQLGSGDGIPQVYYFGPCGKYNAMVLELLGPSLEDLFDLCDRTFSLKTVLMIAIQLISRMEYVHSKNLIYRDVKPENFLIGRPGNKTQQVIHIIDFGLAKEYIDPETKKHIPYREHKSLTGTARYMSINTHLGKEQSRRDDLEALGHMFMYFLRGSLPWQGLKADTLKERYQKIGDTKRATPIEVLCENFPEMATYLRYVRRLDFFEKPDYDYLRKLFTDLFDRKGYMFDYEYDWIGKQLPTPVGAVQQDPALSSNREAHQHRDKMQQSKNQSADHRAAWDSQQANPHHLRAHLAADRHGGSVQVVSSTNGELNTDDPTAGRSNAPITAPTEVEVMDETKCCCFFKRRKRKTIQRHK

IKBKB (human) = IKBKB (human) (UniProt O14920)
PAK1 (human) = PAK1 (human) (UniProt Q13153)
IKBKE (human) = IKBKE (human) (UniProt Q14164)
Chain of IKBKE (human) (Q14164 whole entry, looked up): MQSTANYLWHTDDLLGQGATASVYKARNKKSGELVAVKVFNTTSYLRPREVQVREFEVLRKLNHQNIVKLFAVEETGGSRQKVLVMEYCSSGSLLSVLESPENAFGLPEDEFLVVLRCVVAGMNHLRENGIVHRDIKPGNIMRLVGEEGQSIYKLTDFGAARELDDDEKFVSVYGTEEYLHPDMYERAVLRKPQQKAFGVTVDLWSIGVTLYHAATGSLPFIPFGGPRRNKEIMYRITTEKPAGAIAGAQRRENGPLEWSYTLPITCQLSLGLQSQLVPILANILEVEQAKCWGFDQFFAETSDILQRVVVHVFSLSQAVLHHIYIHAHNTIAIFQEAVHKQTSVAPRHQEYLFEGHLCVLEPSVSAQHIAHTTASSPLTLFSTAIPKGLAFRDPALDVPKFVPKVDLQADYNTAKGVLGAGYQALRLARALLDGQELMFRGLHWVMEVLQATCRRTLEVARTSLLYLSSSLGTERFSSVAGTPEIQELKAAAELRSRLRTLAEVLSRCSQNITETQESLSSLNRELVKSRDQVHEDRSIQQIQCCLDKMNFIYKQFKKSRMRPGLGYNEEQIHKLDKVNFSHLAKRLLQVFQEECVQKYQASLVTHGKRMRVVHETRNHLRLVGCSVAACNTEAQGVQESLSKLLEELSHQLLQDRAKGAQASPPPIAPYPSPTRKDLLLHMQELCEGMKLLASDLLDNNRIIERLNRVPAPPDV

MET (human) = MET (human) (UniProt P08581)
NEK4 (human) = NEK4 (human) (UniProt P51957)
DAPK1 (human) = DAPK1 (human) (UniProt P53355)
HIPK2 (human) = HIPK2 (human) (UniProt Q9H2X6)
ZAP70 (human) = ZAP70 (human) (UniProt P43403)
ROCK1 (human) = ROCK1 (human) (UniProt Q13464)
AKT2 (human) = AKT2 (human) (UniProt P31751)
PAK6 (human) = PAK6 (human) (UniProt Q9NQU5)
SYK (human) = SYK (human) (UniProt P43405)
TGFBR1 (human) = TGFBR1 (human) (UniProt P36897)
CLK4 (human) = CLK4 (human) (UniProt Q9HAZ1)
Chain of CLK4 (human) (Q9HAZ1 whole entry, looked up): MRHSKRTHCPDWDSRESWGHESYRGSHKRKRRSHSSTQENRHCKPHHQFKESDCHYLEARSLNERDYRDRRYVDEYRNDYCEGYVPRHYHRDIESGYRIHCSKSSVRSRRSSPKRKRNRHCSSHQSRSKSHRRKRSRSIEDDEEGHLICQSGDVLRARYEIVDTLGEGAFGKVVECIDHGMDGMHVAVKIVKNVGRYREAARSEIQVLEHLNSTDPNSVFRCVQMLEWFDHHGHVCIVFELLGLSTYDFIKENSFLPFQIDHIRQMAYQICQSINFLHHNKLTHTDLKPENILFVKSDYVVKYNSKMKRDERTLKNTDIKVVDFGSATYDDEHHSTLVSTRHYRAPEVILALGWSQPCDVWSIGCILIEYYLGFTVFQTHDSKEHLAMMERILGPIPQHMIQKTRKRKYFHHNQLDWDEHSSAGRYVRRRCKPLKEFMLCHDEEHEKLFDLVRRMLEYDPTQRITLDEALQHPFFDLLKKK

TEK (human) = TEK (human) (UniProt Q02763)
DDR2 (human) = DDR2 (human) (UniProt Q16832)
SGK2 (human) = SGK2 (human) (UniProt Q9HBY8)
PAK2 (human) = PAK2 (human) (UniProt Q13177)
Chain of PAK2 (human) (Q13177 whole entry, looked up): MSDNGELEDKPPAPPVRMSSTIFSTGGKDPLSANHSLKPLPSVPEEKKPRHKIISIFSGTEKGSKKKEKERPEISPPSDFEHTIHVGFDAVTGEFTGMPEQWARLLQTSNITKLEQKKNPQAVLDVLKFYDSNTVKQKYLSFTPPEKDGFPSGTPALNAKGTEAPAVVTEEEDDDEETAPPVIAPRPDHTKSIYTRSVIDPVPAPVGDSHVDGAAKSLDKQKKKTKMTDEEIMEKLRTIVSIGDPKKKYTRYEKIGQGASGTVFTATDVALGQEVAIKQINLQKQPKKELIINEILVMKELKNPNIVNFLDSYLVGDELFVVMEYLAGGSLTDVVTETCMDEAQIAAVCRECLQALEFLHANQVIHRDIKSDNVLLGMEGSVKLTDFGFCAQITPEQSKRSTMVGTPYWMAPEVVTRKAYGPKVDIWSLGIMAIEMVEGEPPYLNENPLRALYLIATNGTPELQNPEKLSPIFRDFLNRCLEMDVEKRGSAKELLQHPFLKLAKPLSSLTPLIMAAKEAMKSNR

DMPK (human) = DMPK (human) (UniProt Q09013)
MARK4 (human) = MARK4 (human) (UniProt Q96L34)
MAPKAPK2 (human) = MAPKAPK2 (human) (UniProt P49137)
EGFR (human) = EGFR (human) (UniProt P00533)
MAP3K10 (human) = MAP3K10 (human) (UniProt Q02779)
BRSK2 (human) = BRSK2 (human) (UniProt Q8IWQ3)
EPHA1 (human) = EPHA1 (human) (UniProt P21709)
NEK11 (human) = NEK11 (human) (UniProt Q8NG66)
Chain of NEK11 (human) (Q8NG66 whole entry, looked up): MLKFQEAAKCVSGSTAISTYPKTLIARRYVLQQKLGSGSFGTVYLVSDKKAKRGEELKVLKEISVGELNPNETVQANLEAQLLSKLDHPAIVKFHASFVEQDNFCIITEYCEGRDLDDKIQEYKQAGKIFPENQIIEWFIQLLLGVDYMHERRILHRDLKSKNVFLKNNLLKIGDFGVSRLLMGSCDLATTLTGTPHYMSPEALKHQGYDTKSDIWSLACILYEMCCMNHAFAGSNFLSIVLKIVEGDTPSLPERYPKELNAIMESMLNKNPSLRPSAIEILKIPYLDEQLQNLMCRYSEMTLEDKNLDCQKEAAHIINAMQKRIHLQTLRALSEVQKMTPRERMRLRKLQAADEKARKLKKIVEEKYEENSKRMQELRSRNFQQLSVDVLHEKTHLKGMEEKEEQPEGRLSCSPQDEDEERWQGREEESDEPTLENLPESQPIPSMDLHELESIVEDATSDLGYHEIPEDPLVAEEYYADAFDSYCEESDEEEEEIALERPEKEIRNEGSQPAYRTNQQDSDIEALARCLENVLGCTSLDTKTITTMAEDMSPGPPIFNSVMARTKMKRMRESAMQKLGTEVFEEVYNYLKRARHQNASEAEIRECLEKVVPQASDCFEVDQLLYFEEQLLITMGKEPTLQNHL

Chain of WNK3 (human) (Q9BYP7 whole entry, looked up): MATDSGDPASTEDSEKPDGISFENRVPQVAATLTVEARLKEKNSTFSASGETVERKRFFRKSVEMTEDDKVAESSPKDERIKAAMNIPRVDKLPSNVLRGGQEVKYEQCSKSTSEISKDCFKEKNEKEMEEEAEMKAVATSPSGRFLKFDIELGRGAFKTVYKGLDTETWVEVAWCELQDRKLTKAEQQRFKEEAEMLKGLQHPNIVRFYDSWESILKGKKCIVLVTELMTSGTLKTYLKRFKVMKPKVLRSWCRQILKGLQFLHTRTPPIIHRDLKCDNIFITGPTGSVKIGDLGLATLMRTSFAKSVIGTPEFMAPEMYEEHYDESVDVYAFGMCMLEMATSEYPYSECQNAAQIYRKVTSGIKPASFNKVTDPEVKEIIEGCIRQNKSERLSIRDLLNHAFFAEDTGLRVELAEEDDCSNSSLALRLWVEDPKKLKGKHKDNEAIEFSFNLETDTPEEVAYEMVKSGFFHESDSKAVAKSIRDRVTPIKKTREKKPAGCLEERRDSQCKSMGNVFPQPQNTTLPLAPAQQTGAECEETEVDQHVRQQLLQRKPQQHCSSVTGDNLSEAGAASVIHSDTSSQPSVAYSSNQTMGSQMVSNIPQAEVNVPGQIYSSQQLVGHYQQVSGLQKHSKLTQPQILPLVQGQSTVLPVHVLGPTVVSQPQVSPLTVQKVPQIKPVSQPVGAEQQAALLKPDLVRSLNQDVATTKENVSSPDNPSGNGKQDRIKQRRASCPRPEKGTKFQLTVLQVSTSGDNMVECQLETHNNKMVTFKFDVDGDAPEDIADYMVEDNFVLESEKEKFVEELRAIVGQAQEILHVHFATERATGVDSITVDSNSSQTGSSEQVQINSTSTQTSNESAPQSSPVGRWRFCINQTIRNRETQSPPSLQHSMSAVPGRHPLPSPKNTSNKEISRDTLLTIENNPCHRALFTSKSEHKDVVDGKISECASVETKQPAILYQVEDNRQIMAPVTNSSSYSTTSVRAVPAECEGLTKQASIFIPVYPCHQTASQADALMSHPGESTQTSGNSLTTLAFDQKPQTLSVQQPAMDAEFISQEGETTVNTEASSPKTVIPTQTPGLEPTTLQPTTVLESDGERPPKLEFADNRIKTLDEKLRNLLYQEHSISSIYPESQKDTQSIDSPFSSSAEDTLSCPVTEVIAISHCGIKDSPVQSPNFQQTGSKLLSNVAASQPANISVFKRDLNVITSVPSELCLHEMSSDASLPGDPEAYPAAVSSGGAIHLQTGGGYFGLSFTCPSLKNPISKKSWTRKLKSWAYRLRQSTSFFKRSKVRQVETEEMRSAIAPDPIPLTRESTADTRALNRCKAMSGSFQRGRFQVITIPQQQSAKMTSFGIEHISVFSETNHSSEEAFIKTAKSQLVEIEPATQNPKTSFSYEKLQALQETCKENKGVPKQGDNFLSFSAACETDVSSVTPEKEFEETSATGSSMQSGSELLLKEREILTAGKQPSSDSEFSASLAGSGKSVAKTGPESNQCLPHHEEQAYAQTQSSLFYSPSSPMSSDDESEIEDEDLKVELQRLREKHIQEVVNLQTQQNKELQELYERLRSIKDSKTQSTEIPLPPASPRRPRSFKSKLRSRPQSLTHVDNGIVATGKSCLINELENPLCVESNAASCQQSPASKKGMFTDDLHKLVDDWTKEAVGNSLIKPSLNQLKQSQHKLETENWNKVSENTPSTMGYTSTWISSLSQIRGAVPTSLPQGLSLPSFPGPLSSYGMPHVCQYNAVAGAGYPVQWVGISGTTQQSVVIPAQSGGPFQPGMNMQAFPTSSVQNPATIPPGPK
Chain of GSK3B (human) (P49841 whole entry, looked up): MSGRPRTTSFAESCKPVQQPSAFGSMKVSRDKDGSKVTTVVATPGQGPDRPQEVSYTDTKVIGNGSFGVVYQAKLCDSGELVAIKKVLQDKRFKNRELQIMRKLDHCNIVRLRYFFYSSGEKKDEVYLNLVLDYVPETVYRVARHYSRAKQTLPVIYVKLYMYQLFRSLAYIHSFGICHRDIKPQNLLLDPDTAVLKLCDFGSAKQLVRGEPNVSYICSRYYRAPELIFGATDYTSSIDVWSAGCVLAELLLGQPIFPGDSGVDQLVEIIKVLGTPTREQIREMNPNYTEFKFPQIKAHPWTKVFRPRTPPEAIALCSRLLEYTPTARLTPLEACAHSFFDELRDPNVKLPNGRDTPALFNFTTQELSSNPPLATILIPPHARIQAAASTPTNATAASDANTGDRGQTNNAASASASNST

Structure (SMILES): N#C/C(=C(/N)Sc1ccc(N)cc1)c1ccccc1C(F)(F)F
- residual activity (WNK3 (human)): 94.9%
- residual activity (NTRK1 (human)): 109%
- residual activity (GSK3B (human)): 102%
- residual activity (KIT (human)): 91.8%
- residual activity (EPHA3 (human)): 105%
- residual activity (CHUK (human)): 102%
- residual activity (MST1R (human)): 90.4%
- residual activity (EPHB4 (human)): 102%
- residual activity (DYRK3 (human)): 105%
- residual activity [1]: 102%
- residual activity (MAPK9 (human)): 110%
- residual activity (CDK1 CCNA2 (human)): 91.2%
- residual activity (CSNK2A2 (human)): 86%
- residual activity (MERTK (human)): 80.7%
- residual activity (RAF1 (human)): 103%
- residual activity (CSNK1G3 (human)): 103%
- residual activity (IKBKB (human)): 100%
- residual activity (PAK1 (human)): 94.3%
- residual activity (IKBKE (human)): 102%
- residual activity (MET (human)): 77.2%
- residual activity (NEK4 (human)): 95.9%
- residual activity (DAPK1 (human)): 104%
- residual activity (HIPK2 (human)): 115%
- residual activity (ZAP70 (human)): 102%
- residual activity (ROCK1 (human)): 104%
- residual activity (AKT2 (human)): 102%
- residual activity (PAK6 (human)): 107%
- residual activity (SYK (human)): 99.3%
- residual activity (TGFBR1 (human)): 98.3%
- residual activity (CLK4 (human)): 93.4%
- residual activity (TEK (human)): 104%
- residual activity (DDR2 (human)): 102%
- residual activity (SGK2 (human)): 99%
- residual activity (PAK2 (human)): 98%
- residual activity (DMPK (human)): 102%
- residual activity (MARK4 (human)): 101%
- residual activity (MAPKAPK2 (human)): 103%
- residual activity (EGFR (human)): 97.3%
- residual activity (MAP3K10 (human)): 88.1%
- residual activity (BRSK2 (human)): 102%
- residual activity (EPHA1 (human)): 100%
- residual activity (NEK11 (human)): 97.7%

Structure (SMILES): CC(C)N(CCC(=O)c1ccc2ccccc2c1)Cc1ccccc1
- residual activity (WNK3 (human)): 97%
- residual activity (NTRK1 (human)): 94.8%
- residual activity (GSK3B (human)): 94.9%
- residual activity (KIT (human)): 86.5%
- residual activity (EPHA3 (human)): 85%
- residual activity (CHUK (human)): 96.4%
- residual activity (MST1R (human)): 92.6%
- residual activity (EPHB4 (human)): 102%
- residual activity (DYRK3 (human)): 107%
- residual activity [1]: 103%
- residual activity (MAPK9 (human)): 100%
- residual activity (CDK1 CCNA2 (human)): 92.9%
- residual activity (CSNK2A2 (human)): 95.4%
- residual activity (MERTK (human)): 106%
- residual activity (RAF1 (human)): 87.3%
- residual activity (CSNK1G3 (human)): 99%
- residual activity (IKBKB (human)): 101%
- residual activity (PAK1 (human)): 98.3%
- residual activity (IKBKE (human)): 93%
- residual activity (MET (human)): 110%
- residual activity (NEK4 (human)): 95.7%
- residual activity (DAPK1 (human)): 97.9%
- residual activity (HIPK2 (human)): 107%
- residual activity (ZAP70 (human)): 93.7%
- residual activity (ROCK1 (human)): 98.6%
- residual activity (AKT2 (human)): 96.5%
- residual activity (PAK6 (human)): 116%
- residual activity (SYK (human)): 101%
- residual activity (TGFBR1 (human)): 92.5%
- residual activity (CLK4 (human)): 91.7%
- residual activity (TEK (human)): 96.3%
- residual activity (DDR2 (human)): 92.5%
- residual activity (SGK2 (human)): 101%
- residual activity (PAK2 (human)): 107%
- residual activity (DMPK (human)): 108%
- residual activity (MARK4 (human)): 89.3%
- residual activity (MAPKAPK2 (human)): 99%
- residual activity (EGFR (human)): 99.4%
- residual activity (MAP3K10 (human)): 92.6%
- residual activity (BRSK2 (human)): 103%
- residual activity (EPHA1 (human)): 92.4%
- residual activity (NEK11 (human)): 105%
